In ChEMBL document CHEMBL5463729, “Data for DCP probe BAY 1753011” (2023):

Columns and labels:
Settings in all cases: Compound concentration 10.0 uM
[1] = biological target: Dual specificity mitogen-activated protein kinase kinase 1 (Homo sapiens) (UniProt Q02750); assay: Inhibition of MEK1(h) at 10.0 µM in the Eurofins Kinase panel
[2] = biological target: G protein-coupled receptor kinase 4 (Homo sapiens) (UniProt P32298); assay: Inhibition of GRK4(h) at 10.0 µM in the Eurofins Kinase panel
[3] = biological target: Protein kinase C beta type (Homo sapiens) (UniProt P05771); assay: Inhibition of PKCbetaII(h) at 10.0 µM in the Eurofins Kinase panel
[4] = biological target: Mitogen-activated protein kinase 13 (Homo sapiens) (UniProt O15264); assay: Inhibition of SAPK4(h) at 10.0 µM in the Eurofins Kinase panel
[5] = biological target: Myosin light chain kinase 2, skeletal/cardiac muscle (Homo sapiens) (UniProt Q9H1R3); assay: Inhibition of MYLK2(h) at 10.0 µM in the Eurofins Kinase panel
[6] = biological target: T1, cGMP-dependent protein kinase 1 (Homo sapiens) (UniProt Q13976); assay: Inhibition of PKG1alpha(h) at 10.0 µM in the Eurofins Kinase panel
T1 sequence (whole entry): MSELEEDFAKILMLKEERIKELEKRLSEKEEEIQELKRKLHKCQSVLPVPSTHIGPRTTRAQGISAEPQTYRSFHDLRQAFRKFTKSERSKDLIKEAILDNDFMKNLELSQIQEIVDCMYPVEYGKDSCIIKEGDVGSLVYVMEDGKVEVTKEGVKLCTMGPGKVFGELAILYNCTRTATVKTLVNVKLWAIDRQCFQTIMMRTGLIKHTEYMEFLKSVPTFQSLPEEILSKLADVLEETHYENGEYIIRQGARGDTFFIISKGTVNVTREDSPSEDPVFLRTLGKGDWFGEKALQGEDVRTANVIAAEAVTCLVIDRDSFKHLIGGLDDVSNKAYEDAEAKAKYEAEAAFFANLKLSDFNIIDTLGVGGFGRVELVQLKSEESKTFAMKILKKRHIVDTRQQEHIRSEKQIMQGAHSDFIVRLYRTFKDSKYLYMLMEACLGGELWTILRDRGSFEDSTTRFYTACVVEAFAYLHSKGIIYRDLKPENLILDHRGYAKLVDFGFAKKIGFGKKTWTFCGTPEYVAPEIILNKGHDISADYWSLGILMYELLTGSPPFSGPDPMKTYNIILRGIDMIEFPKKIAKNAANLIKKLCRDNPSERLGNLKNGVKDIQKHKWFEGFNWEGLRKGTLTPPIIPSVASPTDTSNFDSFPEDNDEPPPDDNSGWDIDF

[7] = biological target: Receptor tyrosine-protein kinase erbB-4 (Homo sapiens) (UniProt Q15303); assay: Inhibition of ErbB4(h) at 10.0 µM in the Eurofins Kinase panel
[8] = biological target: T2, 5-hydroxytryptamine receptor 1A (Homo sapiens) (UniProt P08908)
T2 sequence (whole entry): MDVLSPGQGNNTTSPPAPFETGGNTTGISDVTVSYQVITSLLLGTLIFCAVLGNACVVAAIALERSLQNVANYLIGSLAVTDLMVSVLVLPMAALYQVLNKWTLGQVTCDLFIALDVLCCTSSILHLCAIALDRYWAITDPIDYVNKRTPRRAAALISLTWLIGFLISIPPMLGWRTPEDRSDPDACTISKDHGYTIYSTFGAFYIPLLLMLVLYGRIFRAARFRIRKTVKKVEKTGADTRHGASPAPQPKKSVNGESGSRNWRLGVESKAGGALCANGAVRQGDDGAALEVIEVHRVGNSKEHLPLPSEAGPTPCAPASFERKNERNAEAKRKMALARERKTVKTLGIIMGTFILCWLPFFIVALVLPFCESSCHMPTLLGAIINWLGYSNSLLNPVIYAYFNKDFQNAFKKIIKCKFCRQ

[9] = biological target: Dual specificity tyrosine-phosphorylation-regulated kinase 3 (Homo sapiens) (UniProt O43781); assay: Inhibition of DYRK3(h) at 10.0 µM in the Eurofins Kinase panel
[10] = biological target: Mast/stem cell growth factor receptor Kit (Homo sapiens) (UniProt P10721); assay: Inhibition of cKit(h) at 10.0 µM in the Eurofins Kinase panel
[11] = biological target: Delta-type opioid receptor (Homo sapiens) (UniProt P41143)
[12] = biological target: Tyrosine-protein kinase Tec (Homo sapiens) (UniProt P42680); assay: Inhibition of Tec(h) activated at 10.0 µM in the Eurofins Kinase panel
[13] = biological target: 5-hydroxytryptamine receptor 2C (Homo sapiens) (UniProt P28335)
[14] = biological target: Ephrin type-A receptor 1 (Homo sapiens) (UniProt P21709); assay: Inhibition of EphA1(h) at 10.0 µM in the Eurofins Kinase panel
[15] = biological target: Calcium/calmodulin-dependent protein kinase type 1 (Homo sapiens) (UniProt Q14012); assay: Inhibition of CaMKI(h) at 10.0 µM in the Eurofins Kinase panel
[16] = biological target: Testis-specific serine/threonine-protein kinase 2 (Homo sapiens) (UniProt Q96PF2); assay: Inhibition of TSSK2(h) at 10.0 µM in the Eurofins Kinase panel
[17] = biological target: Serine/threonine-protein kinase 24 (Homo sapiens) (UniProt Q9Y6E0); assay: Inhibition of MST3(h) at 10.0 µM in the Eurofins Kinase panel
[18] = biological target: Ribosomal protein S6 kinase alpha-5 (Homo sapiens) (UniProt O75582); assay: Inhibition of MSK1(h) at 10.0 µM in the Eurofins Kinase panel
[19] = biological target: Insulin receptor (Homo sapiens) (UniProt P06213); assay: Inhibition of IR(h) at 10.0 µM in the Eurofins Kinase panel
[20] = biological target: 5-hydroxytryptamine receptor 7 (Homo sapiens) (UniProt P34969)
[21] = biological target: Serine/threonine-protein kinase TBK1 (Homo sapiens) (UniProt Q9UHD2); assay: Inhibition of TBK1(h) at 10.0 µM in the Eurofins Kinase panel
[22] = biological target: Fibroblast growth factor receptor 2 (Homo sapiens) (UniProt P21802); assay: Inhibition of FGFR2(h) at 10.0 µM in the Eurofins Kinase panel
[23] = biological target: Serine/threonine-protein kinase mTOR (Homo sapiens) (UniProt P42345); assay: Inhibition of mTOR(h) at 10.0 µM in the Eurofins Kinase panel
[24] = biological target: cAMP-dependent protein kinase (PKA) (Homo sapiens) (UniProt P22694+P17612+P22612); assay: Inhibition of PKA(h) at 10.0 µM in the Eurofins Kinase panel; assay type: protein assay
[25] = biological target: Casein kinase I isoform gamma-2 (Homo sapiens) (UniProt P78368); assay: Inhibition of CK1gamma2(h) at 10.0 µM in the Eurofins Kinase panel
[26] = biological target: Serine/threonine-protein kinase Nek11 (Homo sapiens) (UniProt Q8NG66); assay: Inhibition of NEK11(h) at 10.0 µM in the Eurofins Kinase panel

5-hydroxytryptamine receptor 7 (Homo sapiens), sequence (P34969 whole entry): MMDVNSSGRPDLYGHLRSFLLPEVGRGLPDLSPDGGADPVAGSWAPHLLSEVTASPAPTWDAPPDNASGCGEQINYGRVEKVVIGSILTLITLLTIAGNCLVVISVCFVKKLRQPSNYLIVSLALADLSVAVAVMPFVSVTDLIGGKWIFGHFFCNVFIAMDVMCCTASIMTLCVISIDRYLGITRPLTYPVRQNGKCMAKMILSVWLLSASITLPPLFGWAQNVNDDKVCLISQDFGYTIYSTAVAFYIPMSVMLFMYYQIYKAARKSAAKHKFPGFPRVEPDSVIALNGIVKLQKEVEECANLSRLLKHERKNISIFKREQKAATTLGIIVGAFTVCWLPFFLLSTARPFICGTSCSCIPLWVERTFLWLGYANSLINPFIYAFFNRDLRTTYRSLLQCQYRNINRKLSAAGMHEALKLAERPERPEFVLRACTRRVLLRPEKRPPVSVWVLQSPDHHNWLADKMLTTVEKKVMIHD
Delta-type opioid receptor (Homo sapiens), sequence (P41143 whole entry): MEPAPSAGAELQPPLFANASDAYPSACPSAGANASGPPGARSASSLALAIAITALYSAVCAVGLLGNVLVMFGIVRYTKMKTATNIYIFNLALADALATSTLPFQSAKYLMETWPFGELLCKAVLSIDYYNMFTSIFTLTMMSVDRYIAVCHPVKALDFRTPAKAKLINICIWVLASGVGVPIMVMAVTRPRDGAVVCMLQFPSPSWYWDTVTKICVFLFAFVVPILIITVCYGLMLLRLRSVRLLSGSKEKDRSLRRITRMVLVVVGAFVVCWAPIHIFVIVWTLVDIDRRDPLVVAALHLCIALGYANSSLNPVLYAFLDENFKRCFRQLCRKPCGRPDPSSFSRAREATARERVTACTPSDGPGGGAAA
Myosin light chain kinase 2, skeletal/cardiac muscle (Homo sapiens), sequence (Q9H1R3 whole entry): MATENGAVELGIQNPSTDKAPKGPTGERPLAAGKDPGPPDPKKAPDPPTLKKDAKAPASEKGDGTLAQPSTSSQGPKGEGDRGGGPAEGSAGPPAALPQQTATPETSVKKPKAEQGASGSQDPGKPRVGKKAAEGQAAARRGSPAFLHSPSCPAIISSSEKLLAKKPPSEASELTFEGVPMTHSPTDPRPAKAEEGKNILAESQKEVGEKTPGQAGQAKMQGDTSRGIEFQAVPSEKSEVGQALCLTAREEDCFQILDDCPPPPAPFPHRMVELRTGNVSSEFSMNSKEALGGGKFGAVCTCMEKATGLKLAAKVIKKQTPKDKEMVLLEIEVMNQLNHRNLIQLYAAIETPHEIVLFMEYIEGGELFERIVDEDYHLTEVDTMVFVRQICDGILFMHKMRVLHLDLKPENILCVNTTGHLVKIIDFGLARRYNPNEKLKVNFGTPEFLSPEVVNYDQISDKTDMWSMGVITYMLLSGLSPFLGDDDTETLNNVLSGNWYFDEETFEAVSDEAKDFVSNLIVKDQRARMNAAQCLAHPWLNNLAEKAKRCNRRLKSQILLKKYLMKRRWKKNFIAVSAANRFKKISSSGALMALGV
Mitogen-activated protein kinase 13 (Homo sapiens), sequence (O15264 whole entry): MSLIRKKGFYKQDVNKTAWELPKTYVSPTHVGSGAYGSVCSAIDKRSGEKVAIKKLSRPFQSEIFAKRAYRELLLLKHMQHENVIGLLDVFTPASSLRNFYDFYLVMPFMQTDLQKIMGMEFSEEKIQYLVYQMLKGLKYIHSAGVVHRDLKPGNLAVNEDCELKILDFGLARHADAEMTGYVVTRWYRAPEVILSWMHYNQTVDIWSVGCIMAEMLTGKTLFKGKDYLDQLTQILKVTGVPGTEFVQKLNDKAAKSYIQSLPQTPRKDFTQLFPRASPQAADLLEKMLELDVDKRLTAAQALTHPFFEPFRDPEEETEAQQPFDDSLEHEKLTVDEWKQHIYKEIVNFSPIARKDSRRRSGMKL
Insulin receptor (Homo sapiens), sequence (P06213 28-758 limits assumed): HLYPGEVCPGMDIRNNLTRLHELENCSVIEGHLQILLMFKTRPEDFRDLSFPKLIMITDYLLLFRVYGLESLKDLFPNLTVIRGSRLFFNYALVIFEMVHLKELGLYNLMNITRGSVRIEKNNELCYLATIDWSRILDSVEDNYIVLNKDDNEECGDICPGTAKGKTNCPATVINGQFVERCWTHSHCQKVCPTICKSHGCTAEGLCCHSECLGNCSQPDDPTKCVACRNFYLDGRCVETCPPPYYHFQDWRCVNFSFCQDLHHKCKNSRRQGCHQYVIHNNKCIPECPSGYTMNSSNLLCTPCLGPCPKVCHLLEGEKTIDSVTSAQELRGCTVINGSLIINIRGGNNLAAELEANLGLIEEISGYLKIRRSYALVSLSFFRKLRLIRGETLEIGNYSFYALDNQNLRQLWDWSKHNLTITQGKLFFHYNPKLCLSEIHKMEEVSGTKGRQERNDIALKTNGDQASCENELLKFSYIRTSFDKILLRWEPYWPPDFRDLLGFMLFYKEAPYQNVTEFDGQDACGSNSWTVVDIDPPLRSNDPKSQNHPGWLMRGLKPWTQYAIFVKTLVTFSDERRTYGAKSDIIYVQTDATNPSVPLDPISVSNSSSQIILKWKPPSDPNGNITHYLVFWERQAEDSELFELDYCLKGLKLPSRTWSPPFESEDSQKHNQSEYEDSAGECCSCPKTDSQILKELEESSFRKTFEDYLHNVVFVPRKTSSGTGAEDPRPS
Insulin receptor (Homo sapiens), sequence (P06213 763-1382 limits assumed): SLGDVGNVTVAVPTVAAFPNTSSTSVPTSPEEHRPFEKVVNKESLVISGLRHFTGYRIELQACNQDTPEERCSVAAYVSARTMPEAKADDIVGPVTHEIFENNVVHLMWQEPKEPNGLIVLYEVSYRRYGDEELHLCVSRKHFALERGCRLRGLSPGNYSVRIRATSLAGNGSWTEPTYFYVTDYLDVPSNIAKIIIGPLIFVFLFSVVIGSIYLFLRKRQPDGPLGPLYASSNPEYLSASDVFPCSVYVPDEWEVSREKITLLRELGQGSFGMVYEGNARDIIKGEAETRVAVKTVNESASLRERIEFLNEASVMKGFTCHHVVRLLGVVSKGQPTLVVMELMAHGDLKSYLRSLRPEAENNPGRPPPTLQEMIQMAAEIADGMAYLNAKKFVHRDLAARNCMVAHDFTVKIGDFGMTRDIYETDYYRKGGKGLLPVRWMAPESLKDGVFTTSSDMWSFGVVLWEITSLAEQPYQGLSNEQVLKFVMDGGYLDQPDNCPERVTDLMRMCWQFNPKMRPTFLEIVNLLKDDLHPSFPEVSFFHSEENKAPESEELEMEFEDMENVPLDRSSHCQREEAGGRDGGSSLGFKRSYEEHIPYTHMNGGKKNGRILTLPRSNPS
Calcium/calmodulin-dependent protein kinase type 1 (Homo sapiens), sequence (Q14012 whole entry, looked up): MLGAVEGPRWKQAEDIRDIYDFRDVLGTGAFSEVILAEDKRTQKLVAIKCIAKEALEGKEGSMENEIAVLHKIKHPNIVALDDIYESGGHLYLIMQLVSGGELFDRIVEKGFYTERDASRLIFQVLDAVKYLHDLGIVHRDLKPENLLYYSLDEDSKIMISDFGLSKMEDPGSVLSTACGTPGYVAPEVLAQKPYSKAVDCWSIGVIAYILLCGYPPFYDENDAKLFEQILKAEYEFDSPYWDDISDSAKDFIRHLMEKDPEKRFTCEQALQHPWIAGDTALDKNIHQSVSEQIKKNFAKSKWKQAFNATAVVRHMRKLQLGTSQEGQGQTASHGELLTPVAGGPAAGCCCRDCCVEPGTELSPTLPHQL
Ephrin type-A receptor 1 (Homo sapiens), sequence (P21709 whole entry): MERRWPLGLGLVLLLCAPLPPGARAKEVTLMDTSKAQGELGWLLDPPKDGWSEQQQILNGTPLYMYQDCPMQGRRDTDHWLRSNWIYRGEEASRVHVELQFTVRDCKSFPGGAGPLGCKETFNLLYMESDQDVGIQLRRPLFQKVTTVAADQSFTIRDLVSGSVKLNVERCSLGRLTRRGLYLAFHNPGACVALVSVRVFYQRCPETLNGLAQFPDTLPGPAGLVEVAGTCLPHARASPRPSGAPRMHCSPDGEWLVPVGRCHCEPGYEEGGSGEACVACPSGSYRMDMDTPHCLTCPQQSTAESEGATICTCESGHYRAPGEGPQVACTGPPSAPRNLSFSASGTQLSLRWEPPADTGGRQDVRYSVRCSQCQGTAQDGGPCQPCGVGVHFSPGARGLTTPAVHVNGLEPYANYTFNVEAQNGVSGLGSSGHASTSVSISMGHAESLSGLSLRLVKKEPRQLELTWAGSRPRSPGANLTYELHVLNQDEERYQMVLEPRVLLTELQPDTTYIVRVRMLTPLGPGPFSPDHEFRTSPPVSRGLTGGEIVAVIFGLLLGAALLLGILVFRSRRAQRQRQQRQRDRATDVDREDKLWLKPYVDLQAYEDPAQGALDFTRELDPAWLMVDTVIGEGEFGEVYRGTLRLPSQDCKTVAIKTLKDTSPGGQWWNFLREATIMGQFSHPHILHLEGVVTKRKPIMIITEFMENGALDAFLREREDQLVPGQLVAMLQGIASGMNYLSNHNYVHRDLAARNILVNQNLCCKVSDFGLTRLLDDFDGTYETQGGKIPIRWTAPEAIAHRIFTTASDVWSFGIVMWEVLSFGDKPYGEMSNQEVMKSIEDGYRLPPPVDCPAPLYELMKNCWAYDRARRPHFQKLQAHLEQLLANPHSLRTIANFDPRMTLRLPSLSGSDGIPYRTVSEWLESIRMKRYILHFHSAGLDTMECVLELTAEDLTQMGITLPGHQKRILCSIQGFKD
Serine/threonine-protein kinase 24 (Homo sapiens), sequence (Q9Y6E0 whole entry, looked up): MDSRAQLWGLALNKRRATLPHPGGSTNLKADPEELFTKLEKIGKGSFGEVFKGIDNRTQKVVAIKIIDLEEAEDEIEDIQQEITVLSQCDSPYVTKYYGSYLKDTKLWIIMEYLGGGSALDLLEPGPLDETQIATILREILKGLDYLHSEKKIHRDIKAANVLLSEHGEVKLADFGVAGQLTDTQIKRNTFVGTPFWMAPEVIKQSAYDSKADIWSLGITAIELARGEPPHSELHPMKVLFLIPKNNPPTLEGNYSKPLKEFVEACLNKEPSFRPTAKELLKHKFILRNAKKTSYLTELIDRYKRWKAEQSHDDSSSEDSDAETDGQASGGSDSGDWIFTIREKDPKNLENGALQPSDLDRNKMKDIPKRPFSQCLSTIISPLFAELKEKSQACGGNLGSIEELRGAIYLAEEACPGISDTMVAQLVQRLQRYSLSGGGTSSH

Compound | inhibition [1] [%] | inhibition [2] [%] | inhibition [3] [%] | inhibition [4] [%] | inhibition [5] [%] | inhibition [6] [%] | inhibition [7] [%] | inhibition [8] [%] | inhibition [9] [%] | inhibition [10] [%] | inhibition [11] [%] | inhibition [12] [%] | inhibition [13] [%] | inhibition [14] [%] | inhibition [15] [%] | inhibition [16] [%] | inhibition [17] [%] | inhibition [18] [%] | inhibition [19] [%] | inhibition [20] [%] | also measured
O=c1n(Cc2cncn2-c2cccc(Cl)c2)nc(-c2ccc(Cl)cc2)n1C[C@H](O)C(F)(F)F | 4.57 | -1.52 | 4.87 | -3.8 | 3.49 | -0.21 | -8.65 | 33.3 | -6.33 | 7.72 | 12.4 | 2.85 | -1 | 2.94 | -4.98 | 2.9 | 5.64 | -0.53 | -7.3 | -2 | inhibition [21]: 7.19%; inhibition [22]: -6.43%; inhibition [23]: 5.25%; inhibition [24]: 2.56%; inhibition [25]: -1.25%; inhibition [26]: 15.8%
C[C@H](O)c1nc(Cn2nc(-c3ccc(Cl)cc3)n(C[C@H](O)C(F)(F)F)c2=O)nn1-c1cccc(Cl)c1 [PECAVAPTAN] | -3.73 | -0.06 | 2.9 | -3.83 | 3.01 | -5.35 | -4.41 | 46.8 | -1.79 | 4.28 | 15.4 | -7.44 | 20 | 7.71 | -5.17 | -2.02 | 3.02 | -5.91 | -5.21 | 17.6 | inhibition [21]: -2.96%; inhibition [22]: -7.72%; inhibition [23]: -1.45%; inhibition [24]: -3.46%; inhibition [25]: 4.6%; inhibition [26]: 16.2%
